Data published in US12303509B2, “Compounds for the treatment of BRAF-associated diseases and disorders” (Pfizer Inc., priority 2020, dated 2025).
Where a name gives a salt, the structure may show the parent alone. Read-outs that look alike come from different tables or passages of the source.

What was measured:
A375 cells = test: Cellular phospho-ERK inhibition assay in A375 cells; type: cell-based; settings: Homo sapiens, A-375, A375 cells (head prints A357), 2 hours treatment, read-out: A357 cell IC50
Description: (§1) A375 and H1755 cells were obtained from the American Type Culture Collection (ATCC, Rockville, MD). A375 cells were maintained in DMEM growth medium containing 10% FBS. H1755 cells were maintained in RPMI growth medium containing 10% FBS.
(§2) Cells were harvested according to standard protocols, counted and plated onto flat-bottom, 96-well tissue culture plates (Costar #3599) at 2.5×10^4 cells/well for A375 cells and 1.5×10^4 cells/well for H1755 cells in 100 μL/well of growth medium containing 10% FBS. After an overnight incubation at 37° C. with 5% CO2 cells were treated for 2 hours at 37° C., 5% CO2 with compounds prepared as a 9-point, 1:3.33 fold dilution series with final compound concentrations ranging from 66 pM-10 μM and a constant DMSO concentration of 0.25%. Control wells contained either 0.25% DMSO alone (uninhibited control) or 10 μM binimetinib (complete inhibition control). The levels of phosphorylated ERK are determined using an In Cell Western protocol: following compound incubation, growth medium was discarded, and cells were fixed with 0.4% formaldehyde in PBS for 20 minutes at room temperature. Cells were permeabilized with 100% methanol for 10 minutes at room temperature. Plates were washed with PBS containing 0.05% Tween-20 and blocked for 1 hour at room temperature with LI-COR Blocking Buffer (LI-COR Biosciences; Cat #927-40000). Plates were then incubated for 2 hours at room temperature with 50 μL of a 1:400 dilution of anti-phospho-ERK1/2 (Thr202/Tyr204) (Cell Signaling; Cat #9101) and a 1:1000 dilution of anti-GAPDH (Millipore; Cat #MAB374) in LI-COR blocking buffer containing 0.05% Tween-20. Plates were washed with PBS containing […] Tween-20 then incubated at room temperature for 1 hour with 50 μL of a 1:1000 dilution of anti-rabbit AlexaFluor 680 (Life Technologies; Cat #A21109) and a 1:1000 dilution of anti-mouse IRDye 800CW (LI-COR; Cat #926-32210) in LI-COR blocking buffer containing 0.05% Tween-20. Plates were analyzed by reading on an Odyssey CLx infrared scanner. For each well, the phospho-ERK signal was normalized to the GAPDH signal and converted to POC using the following equation:
(§3) [formula] • Where: • Xmax Average Uninhibited Controls • Xmin Average Complete Inhibition Controls IC50 values were then calculated using a 4-parameter fit in XLfit software and are provided in Table A1.

[1] = molecular target: full-length FLAG-tagged B-Raf(V600E) (Homo sapiens (Human), UniProt P15056, V600E); test: BRAF V600E enzyme assay (TR-FRET competitive displacement); type: binding
Description: A competitive displacement assay was configured for B-Raf that monitors the amount of a fluorescently-tagged “tracer” bound to B-Raf via TR-FRET from an anti-tag Eu-labeled antibody also bound to B-Raf. For full-length FLAG-tagged B-Raf(V600E), the assay mixtures consisted of 25 mM K^+HEPES, pH 7.4, 10 mM MgCl2, 0.01% Triton X-100, 1 mM DTT, 2% DMSO (from compound), 50 nM Tracer 1710 (ThermoFisher, PR9176A), 0.5 nM Eu anti-FLAG (M2)-cryptate Ab (Cisbio, 61FG2KLB) and 5 nM full-length, N-terminally FLAG-tagged B-Raf(V600E) (Origene Technologies, TP700031. Compounds were typically diluted in DMSO across an 11-point dosing range created using a 3-fold serial dilution protocol at a top dose of 10 μM. The assay was run in 384-well, polystyrene, low-volume, non-treated, white microtiter plates (Costar 4512) in a final volume of 12 μL. Low control wells included 1 μM of a potent B-Raf inhibitor as a control. The assays were incubated at ambient temperature (typically 22° C.) for 60 min and then read on a PerkinElmer EnVision microplate reader using standard TRF settings (λEx=320 nm, λEm=615 & 665 nm). The ratioed counts (665 nm/615 nm) were converted to percent of control (POC) using the following equation:
[formula] • where: • Xmax Average Uninhibited Controls • Xmin Average Background
A 4-parameter logistic model was the fit to the POC data for each compound. From that fit, the IC50 was estimated and is defined as the concentration of compound at which the best-fit curve crosses 50 POC.

H1755 cells = test: Cellular phospho-ERK inhibition assay in H1755 cells; type: cell-based; settings: Homo sapiens, NCI-H1755, 2 hours treatment, read-out: H1755 Cell IC50
Description: as §1, §2, §3

[2] = MDR1 LLC-PK1 and BCRP MDCKII permeability assay: permeability coefficient (Papp); type: in vitro ADME
Description: (§4) Final organic concentration in the assay was 1%.

P-gp (MDR1) = P-gp (MDR1) (Homo sapiens (Human), UniProt P08183); test: MDR1 LLC-PK1 permeability assay: efflux ratio; type: in vitro ADME; settings: pig
Description: as §4

BCRP = BCRP (Homo sapiens (Human), UniProt Q9UNQ0); test: BCRP MDCKII permeability assay: efflux ratio; type: in vitro ADME; settings: dog
Description: BCRP transfected MDCKII cells were cultured and plated according to manufacturer's recommendations. Assay conditions included with and without the BCRP-specific inhibitor, KO143, at a concentration of 0.3 μM to ascertain the contribution of BCRP to the efflux value of the test compound.
Both positive and negative controls were used to assess functionality of P-gp or BCRP efflux in the assays. […] Final organic concentration in the assay was 1%. All dosing solutions contained 10 μM lucifer yellow to monitor LLC-PK1 or MDCKII cell monolayer integrity.
For the apical to basolateral determination (A to B), 75 μL of the test article in transport buffer were added to the apical side of the individual transwells and 250 μL of basolateral media, without compound or lucifer yellow, were added to each well. For the basolateral to apical determination (B to A), 250 μL of test article in transport buffer were added to each well and 75 μL transport buffer, without compound or lucifer yellow, were added to each transwell. All tests were performed in triplicate, and each compound was tested for both apical to basolateral and basolateral to apical transport. The plates were incubated for 2 hours on a Lab-Line Instruments Titer Orbital Shaker (VWR, West Chester, PA) at 50 rpm and 37° C. with 5% CO2. All culture plates were removed from the incubator and 50 μL of media were removed from the apical and basolateral portion of each well and added to 150 μL of 1 μM labetalol in 2:1 acetonitrile (acetonitrile): H2O, v/v.
These values were accepted when found to be below 2% for apical to basolateral and 5% basolateral to apical flux across the MDR1-transfected LLC-PK1 or BCRP-transfected MDCKII cell monolayers. The plates were sealed and the contents of each well analyzed by LC-MS/MS. The compound concentrations were determined from the ratio of the peak areas of the compound to the internal standard (labetalol) in comparison to the dosing solution.
The LC-MS/MS system was comprised of an HTS-PAL autosampler (Leap Technologies, Carrboro, NC), an HP1200 HPLC (Agilent, Palo Alto, CA), and a MDS Sciex 4000 Q Trap system (Applied Biosystems, Foster City, CA). […] The total run time, including re-equilibration, for a single injection was 1.2 minutes. Mass spectrometric detection of the analytes was accomplished using the ion spray positive mode.
An efflux ratio is calculated from the mean apical to basolateral (A-B) Papp data and basolateral to apical (B-A) Papp data using the following equation: Efflux ratio=Papp(B-A)/Papp(A-B)

[3] = averaged IC50, TR-FRET tracer displacement, 60 min

Chain of full-length FLAG-tagged B-Raf(V600E) (P15056 whole entry V600E): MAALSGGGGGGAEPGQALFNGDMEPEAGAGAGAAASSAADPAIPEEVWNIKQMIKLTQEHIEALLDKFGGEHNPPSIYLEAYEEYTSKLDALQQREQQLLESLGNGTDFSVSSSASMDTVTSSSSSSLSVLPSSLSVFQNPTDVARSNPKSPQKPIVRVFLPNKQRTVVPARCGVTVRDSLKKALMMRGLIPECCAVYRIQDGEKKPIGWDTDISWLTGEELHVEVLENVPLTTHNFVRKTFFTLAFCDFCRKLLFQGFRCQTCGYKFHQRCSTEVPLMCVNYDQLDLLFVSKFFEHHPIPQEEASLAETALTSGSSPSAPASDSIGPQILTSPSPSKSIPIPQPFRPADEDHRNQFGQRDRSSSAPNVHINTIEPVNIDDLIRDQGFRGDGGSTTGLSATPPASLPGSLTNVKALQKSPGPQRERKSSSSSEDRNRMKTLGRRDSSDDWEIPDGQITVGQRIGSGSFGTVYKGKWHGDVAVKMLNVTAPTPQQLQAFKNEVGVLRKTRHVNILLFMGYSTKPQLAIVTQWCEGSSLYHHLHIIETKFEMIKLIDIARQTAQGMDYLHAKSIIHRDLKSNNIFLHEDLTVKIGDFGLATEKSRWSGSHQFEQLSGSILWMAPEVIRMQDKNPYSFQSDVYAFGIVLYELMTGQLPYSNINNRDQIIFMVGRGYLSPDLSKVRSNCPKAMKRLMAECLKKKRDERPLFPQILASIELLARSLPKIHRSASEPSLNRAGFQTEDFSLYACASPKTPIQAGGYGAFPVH
Chain of BCRP (Q9UNQ0 whole entry): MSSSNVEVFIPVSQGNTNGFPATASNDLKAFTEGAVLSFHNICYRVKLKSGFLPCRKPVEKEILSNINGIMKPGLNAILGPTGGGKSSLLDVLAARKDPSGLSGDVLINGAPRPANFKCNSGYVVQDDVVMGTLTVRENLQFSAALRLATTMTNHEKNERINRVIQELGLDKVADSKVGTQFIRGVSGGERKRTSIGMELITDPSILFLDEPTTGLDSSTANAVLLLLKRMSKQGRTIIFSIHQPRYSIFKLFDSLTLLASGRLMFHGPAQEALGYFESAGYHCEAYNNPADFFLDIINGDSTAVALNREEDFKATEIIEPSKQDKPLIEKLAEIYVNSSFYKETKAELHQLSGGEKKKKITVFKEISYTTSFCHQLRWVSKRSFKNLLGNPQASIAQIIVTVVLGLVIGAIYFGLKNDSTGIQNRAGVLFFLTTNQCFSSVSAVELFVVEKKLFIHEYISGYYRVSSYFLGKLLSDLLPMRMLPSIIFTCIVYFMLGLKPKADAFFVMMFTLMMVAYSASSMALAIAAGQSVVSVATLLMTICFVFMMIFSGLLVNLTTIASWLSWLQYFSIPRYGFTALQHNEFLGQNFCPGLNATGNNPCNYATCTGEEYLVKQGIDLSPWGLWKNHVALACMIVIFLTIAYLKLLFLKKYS
Chain of P-gp (MDR1) (P08183 whole entry, species assumed): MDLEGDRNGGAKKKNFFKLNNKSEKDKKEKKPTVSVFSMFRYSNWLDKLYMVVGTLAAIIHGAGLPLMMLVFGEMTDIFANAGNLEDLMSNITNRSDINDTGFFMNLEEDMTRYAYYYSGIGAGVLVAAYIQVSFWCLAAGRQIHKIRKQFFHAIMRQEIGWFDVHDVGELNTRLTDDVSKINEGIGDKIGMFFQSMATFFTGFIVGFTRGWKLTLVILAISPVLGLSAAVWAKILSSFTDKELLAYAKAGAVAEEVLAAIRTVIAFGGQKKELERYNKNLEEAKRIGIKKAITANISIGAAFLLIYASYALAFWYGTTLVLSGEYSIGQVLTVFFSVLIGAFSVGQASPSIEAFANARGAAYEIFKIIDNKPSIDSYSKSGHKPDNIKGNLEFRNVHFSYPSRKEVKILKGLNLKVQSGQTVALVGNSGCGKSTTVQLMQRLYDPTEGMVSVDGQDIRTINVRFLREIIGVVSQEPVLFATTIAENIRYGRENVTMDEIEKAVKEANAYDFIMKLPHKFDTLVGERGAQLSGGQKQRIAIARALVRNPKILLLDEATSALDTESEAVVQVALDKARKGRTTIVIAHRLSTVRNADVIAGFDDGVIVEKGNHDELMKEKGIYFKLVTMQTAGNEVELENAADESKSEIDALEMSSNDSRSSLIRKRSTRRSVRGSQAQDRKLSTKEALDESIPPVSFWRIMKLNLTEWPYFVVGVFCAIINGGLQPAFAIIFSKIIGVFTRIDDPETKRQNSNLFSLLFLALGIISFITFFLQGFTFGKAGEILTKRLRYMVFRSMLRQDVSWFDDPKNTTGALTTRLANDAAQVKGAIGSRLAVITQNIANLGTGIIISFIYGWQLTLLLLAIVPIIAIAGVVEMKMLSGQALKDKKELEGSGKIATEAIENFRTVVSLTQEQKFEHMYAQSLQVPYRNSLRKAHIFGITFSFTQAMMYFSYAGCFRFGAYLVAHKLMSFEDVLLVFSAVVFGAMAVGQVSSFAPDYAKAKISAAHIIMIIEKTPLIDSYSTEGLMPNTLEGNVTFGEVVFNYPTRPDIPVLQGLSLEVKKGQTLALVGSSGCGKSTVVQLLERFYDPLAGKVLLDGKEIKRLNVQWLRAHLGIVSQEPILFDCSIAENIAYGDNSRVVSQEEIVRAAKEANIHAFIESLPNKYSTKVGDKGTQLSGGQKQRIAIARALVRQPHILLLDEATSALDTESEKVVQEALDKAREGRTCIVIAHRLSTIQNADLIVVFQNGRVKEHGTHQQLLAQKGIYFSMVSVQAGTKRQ

Row | IC50 (A375 cells) [nM] | IC50 [1, 3] [nM] | IC50 (H1755 cells) [nM] | Papp at 2 h, 1 µM [2] [×10⁻⁶ cm/s] | IC50 [1] [nM] | efflux ratio at 2 h, 1 µM (P-gp (MDR1)) | Structure (SMILES) | efflux ratio at 2 h, 1 µM (BCRP)
1 | 7 |  | 64 | 34 | 2 | 4.5 | Cn1cnc2ccc(Oc3c(F)ccc(NS(=O)(=O)N4C[C@@H](F)[C@@H](F)C4)c3Cl)c(F)c2c1=O [Example 64, cis-N-(2-chloro-4-fluoro-3-((5-fluoro-3-methyl-4-oxo-3,4-dihydroquinazolin-6-yl)oxy)phenyl)-3,4-difluoropyrrolidine-1-sulfonamide] | 
2 | 6 | 4 | 41 | 34 |  | 3.5 | COCC1CN(S(=O)(=O)Nc2ccc(F)c(Oc3ccc4ncn(C)c(=O)c4c3Cl)c2Cl)C1 [Example 118, N-(2-chloro-3-((5-chloro-3-methyl-4-oxo-3,4-dihydroquinazolin-6-yl)oxy)-4-fluorophenyl)-3-(methoxymethyl)azetidine-1-sulfonamide] | 
3 | 8 | 6 | 51 | 32 |  | 3.8 | COC1CN(S(=O)(=O)Nc2ccc(F)c(Oc3ccc4ncn(C)c(=O)c4c3Cl)c2Cl)C1 [Example 119, N-(2-chloro-3-((5-chloro-3-methyl-4-oxo-3,4-dihydroquinazolin-6-yl)oxy)-4-fluorophenyl)-3-methoxyazetidine-1-sulfonamide] | 
4 | 87 | 33 |  | 38 |  | 1.3 | CCOC1CN(S(=O)(=O)Nc2ccc(F)c(Nc3ccc4ncn(C)c(=O)c4c3C)c2Cl)C1 [Example 160, N-(2-chloro-3-((3,5-dimethyl-4-oxo-3,4-dihydroquinazolin-6-yl)amino)-4-fluorophenyl)-3-ethoxyazetidine-1-sulfonamide] | 1.3
5 | 245 | 24 |  | 27 |  | 1.9 | Cc1c(Nc2c(F)ccc(NS(=O)(=O)N3CC(OC(F)F)C3)c2Cl)ccc2ncn(C)c(=O)c12 [Example 161, N-(2-chloro-3-((3,5-dimethyl-4-oxo-3,4-dihydroquinazolin-6-yl)amino)-4-fluorophenyl)-3-(difluoromethoxy)azetidine-1-sulfonamide] | 2.6

Second part, the compound before the results:

Row | Structure (SMILES) | IC50 (A375 cells) [nM] | IC50 [1, 3] [nM] | IC50 (H1755 cells) [nM] | Papp at 2 h, 1 µM [2] [×10⁻⁶ cm/s] | IC50 [1] [nM] | efflux ratio at 2 h, 1 µM (P-gp (MDR1)) | efflux ratio at 2 h, 1 µM (BCRP)
6 | CO[C@H]1CN(S(=O)(=O)Nc2cc(F)c(F)c(Nc3ccc4ncn(C)c(=O)c4c3C)c2Cl)C[C@H]1F (relative stereo) [Example 100, cis-N-(2-chloro-3-((3,5-dimethyl-4-oxo-3,4-dihydroquinazolin-6-yl)amino)-4,5-difluorophenyl)-3-fluoro-4-methoxypyrrolidine-1-sulfonamide] | 47 | 6 | 293 |  |  |  | 
7 | C=Cc1c(Nc2c(F)ccc(NS(=O)(=O)N3CCCC3)c2Cl)ccc2ncn(C)c(=O)c12 [Example 51, N-(2-chloro-4-fluoro-3-((3-methyl-4-oxo-5-vinyl-3,4-dihydroquinazolin-6-yl)amino)phenyl)pyrrolidine-1-sulfonamide trifluoroacetate] | 58 | 77 | 278 |  |  |  | 
8 | CCc1c(Nc2c(F)ccc(NS(=O)(=O)N3CCCC3)c2Cl)ccc2ncn(C)c(=O)c12 [Example 52, N-(2-chloro-3-((5-ethyl-3-methyl-4-oxo-3,4-dihydroquinazolin-6-yl)amino)-4-fluorophenyl)pyrrolidine-1-sulfonamide trifluoroacetate] | 124 | 141 | 857 |  |  |  | 
9 | Cc1c(Nc2c(F)c(F)cc(NS(=O)(=O)N3CC4CC3C4)c2Cl)ccc2ncn(C)c(=O)c12 [Example 101, N-(2-chloro-3-((3,5-dimethyl-4-oxo-3,4-dihydroquinazolin-6-yl)amino)-4,5-difluorophenyl)-2-azabicyclo[2.1.1]hexane-2-sulfonamide] | 37 | 3 | 434 |  |  |  | 
10 | Cc1c(Nc2c(F)c(F)cc(NS(=O)(=O)N3CC4CC4C3)c2Cl)ccc2ncn(C)c(=O)c12 (stereo not drawn) [Example 102, N-(2-chloro-3-((3,5-dimethyl-4-oxo-3,4-dihydroquinazolin-6-yl)amino)-4,5-difluorophenyl)-3-azabicyclo[3.1.0]hexane-3-sulfonamide] | 73 | 1 | 702 |  |  |  | 
11 | CO[C@@H]1CCN(S(=O)(=O)Nc2cc(Cl)cc(Nc3ccc4ncn(C)c(=O)c4c3C)c2F)C1 [Example 105, (R)-N-(5-chloro-3-((3,5-dimethyl-4-oxo-3,4-dihydroquinazolin-6-yl)amino)-2-fluorophenyl)-3-methoxypyrrolidine-1-sulfonamide] | 147 | 15 | 268 |  |  |  | 
12 | COCC1(F)CN(S(=O)(=O)Nc2ccc(F)c(Nc3ccc4ncn(C)c(=O)c4c3C)c2Cl)C1 [Example 145, N-(2-chloro-3-((3,5-dimethyl-4-oxo-3,4-dihydroquinazolin-6-yl)amino)-4-fluorophenyl)-3-fluoro-3-(methoxymethyl)azetidine-1-sulfonamide trifluoroacetate] | 25 | 6 |  | 29 |  | 2.6 | 2.4
13 | Cn1cnc2ccc(Nc3c(F)ccc(NS(=O)(=O)N4CC5(CCC5)C4)c3Cl)c(Cl)c2c1=O [Example 158, N-(2-chloro-3-((5-chloro-3-methyl-4-oxo-3,4-dihydroquinazolin-6-yl)amino)-4-fluorophenyl)-2-azaspiro[3.3]heptane-2-sulfonamide trifluoroacetate] | 156 | 8 |  | 26 |  | 1.5 | 1.1
14 | Cn1cnc2ccc(Nc3c(F)ccc(NS(=O)(=O)N4CC5(CCC5)C4)c3Cl)c(F)c2c1=O [Example 159, N-(2-chloro-4-fluoro-3-((5-fluoro-3-methyl-4-oxo-3,4-dihydroquinazolin-6-yl)amino)phenyl)-2-azaspiro[3.3]heptane-2-sulfonamide trifluoroacetate] | 90 | 8 |  | 33 |  | 1.8 | 1.1
15 | Cc1c(Nc2c(F)ccc(NS(=O)(=O)N3CC4(CC4)C3)c2Cl)ccc2ncn(C)c(=O)c12 [Example 163, N-(2-chloro-3-((3,5-dimethyl-4-oxo-3,4-dihydroquinazolin-6-yl)amino)-4-fluorophenyl)-5-azaspiro[2.3]hexane-5-sulfonamide trifluoroacetate] | 179 | 8 |  | 23 |  | 1.9 | 1.4
